Laboratory results reported in patent US5116995A, “Carbazole compounds” (Taisho Pharmaceutical Co., Ltd., priority 1990, dated 1992).
Where two headings read alike, the source gives them in different places.

Experiments:
sigma receptor [1] = target: sigma receptor (Rattus norvegicus, UniProt Q9R0C9); experiment: biochemical
[2] = system: methamphetamine induced hyperlocomotion; experiment: inhibition of Methamphetamine induced Hyperlocomotion; format: in vivo, mouse (male ICR); settings: mice, test drug 50 mg/kg i.p., 35 min before methamphetamine 1 mg/kg i.p.; measured for 30 min from 15 min later; **P < 0.01 (Dunnett's test)
Experimental: Thirty male ICR mice weighing 20 to 35 g were used for each group (5 animals per test, and 6 tests). Mice were placed in the measuring cages, adapted for 60 minutes, and given intraperitoneally the test drugs in Table 1 suspended in 5% gum arabic solution in a dose of 50 mg/kg (0.1 ml/10 g of the body weight). Thirty-five minutes later, methamphetamine dissolved in physiological saline solution was given intraperitoneally in a dose of 1 mg/kg. Fifteen minutes later, the locomotor content was measured for 30 minutes using an Animex apparatus. Control group was given 5% gum arabic only in a similar manner, and […] for measurement. Results are expressed as percentage to control group in Table 2.

sigma receptor [3] = settings: cited from earlier work
phencyclidine receptor [4] = settings: rimcazole value from literature (vol. 155, page 345 (1988)); cited from earlier work
D2 receptor [5] = settings: rimcazole value from literature (vol. 155, page 345 (1988)), [3H]spiporone binding; cited from earlier work
phencyclidine receptor [6] = experiment: Receptor Binding Test: [3H]phencyclidine binding, rat whole brain membranes; design: species or system rat (male Wistar); settings: rat whole brain membrane, 5 mM Tris-HCl pH 7.7, 25° C., 2 hours
Text: 32, page 820 (1987), respectively.

D2 receptor [7] = target: D2 receptor (Rattus norvegicus, UniProt P61169); experiment: Receptor Binding Test: (-)-[3H]sulpiride binding, rat striatal membranes
Sequence of D2 receptor (Rattus norvegicus, UniProt P61169) (P61169 whole entry): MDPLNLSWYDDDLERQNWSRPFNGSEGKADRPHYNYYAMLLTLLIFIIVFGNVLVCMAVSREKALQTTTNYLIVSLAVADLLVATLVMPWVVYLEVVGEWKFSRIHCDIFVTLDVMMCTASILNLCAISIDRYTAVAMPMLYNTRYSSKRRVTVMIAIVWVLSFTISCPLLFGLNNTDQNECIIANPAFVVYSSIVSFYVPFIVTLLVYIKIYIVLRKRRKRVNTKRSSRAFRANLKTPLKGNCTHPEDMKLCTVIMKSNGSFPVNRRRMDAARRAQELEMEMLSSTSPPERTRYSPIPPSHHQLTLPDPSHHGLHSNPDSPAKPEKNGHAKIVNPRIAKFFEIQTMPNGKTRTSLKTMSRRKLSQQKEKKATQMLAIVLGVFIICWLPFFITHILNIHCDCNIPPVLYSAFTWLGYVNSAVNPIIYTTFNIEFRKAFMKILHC

Sequence of sigma receptor (Rattus norvegicus, UniProt Q9R0C9) (Q9R0C9 whole entry): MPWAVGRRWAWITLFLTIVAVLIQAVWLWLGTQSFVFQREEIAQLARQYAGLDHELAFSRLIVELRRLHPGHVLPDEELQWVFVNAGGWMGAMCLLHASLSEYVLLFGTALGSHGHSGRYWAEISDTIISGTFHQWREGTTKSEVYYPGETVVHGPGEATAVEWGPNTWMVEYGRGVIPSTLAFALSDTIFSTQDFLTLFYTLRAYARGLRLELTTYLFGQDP

IC50 (sigma receptor [1]) | IC50 (phencyclidine receptor [6]) | IC50 (D2 receptor [7]) | Compound | locomotor count, % to control group [2] | affinity and specificity for sigma receptor (sigma receptor [3]; prior art statement) | IC50 (sigma receptor [3]; rimcazole value from literature (vol. 155, page 345 (1988))) | IC50 (phencyclidine receptor [4]) | IC50 (D2 receptor [5])
24.3 ± 2.9 nM |  |  | CCCN1CCCC(c2cccc(O)c2)C1 (single isomer, unassigned) [3-PPP, 3-(3-hydroxy-phenyl)-N-n-propylpiperidine, reference compound] |  |  |  |  | 
 |  |  | C[C@@H]1CN(CCCn2c3ccccc3c3ccccc32)C[C@H](C)N1 [Rimcazole] | 51.4% | not sufficient | 1460 ± 235 nM | > 2 mM | 86 µM
891 ± 12.8 nM | > 10 µM | 44.3 µM | CCCN(CCC)Cc1cccc2[nH]c3ccccc3c12.Cl [Test drug A, 4-(di-n-propylaminomethyl)carbazole hydrochloride] | 39.7% |  |  |  | 
4.8 ± 1 nM | > 10 µM | 14.3 µM | CCCN(CCC)CCc1cccc2[nH]c3c(C)ccc(C)c3c12.Cl [Test drug C, 5,8-dimethyl-4-(2-di-n-propylaminoethyl)carbazole hydrochloride] | 35.3% |  |  |  | 
1020 ± 131 nM | > 10 µM | 23.2 µM | CCCN(CCC)Cc1cccc2[nH]c3c(C)ccc(C)c3c12.Cl [Test drug B, 5,8-dimethyl-4-(di-n-propylaminomethyl)carbazole hydrochloride] | 46.6% |  |  |  | 
